Measured values as given in ChEMBL document CHEMBL5113478, “7-Azaindole, 2,7-diazaindole, and 1H-pyrazole as core structures for novel anticancer agents with potential chemosensitizing properties” (Eur J Med Chem, 2022).

Assays:
Type in all cases: functional
[1] = test system: MCF7; assay: Antiproliferative activity against human MCF7 cells assessed as […] cell proliferation at 10 uM incubated for 48 hrs by WST-1 assay relative to control
[2] = test system: MOLT-4; assay: Antiproliferative activity against human MOLT-4 cells assessed as […] cell proliferation at 10 uM incubated for 48 hrs in presence of 2 uM of CDDP by WST-1 assay relative to control
[3] = test system: HT-29; assay: Antiproliferative activity against human HT-29 cells assessed as […] cell proliferation at 10 uM incubated for 48 hrs in presence of 15 uM of CDDP by WST-1 assay relative to control
[4] = test system: A2780; assay: Antiproliferative activity against human A2780 cells assessed as […] cell proliferation at 10 uM incubated for 48 hrs in presence of 2 uM of CDDP by WST-1 assay relative to control
[5] = test system: HeLa; assay: Antiproliferative activity against human HeLa cells assessed as […] cell proliferation at 10 uM incubated for 48 hrs in presence of 15 uM of CDDP by WST-1 assay relative to control
[6] = test system: A549; assay: Antiproliferative activity against human A549 cells assessed as […] cell proliferation at 10 uM incubated for 48 hrs by WST-1 assay relative to control
[7] = test system: Jurkat; assay: Antiproliferative activity against human Jurkat cells assessed as […] cell proliferation at 10 uM incubated for 48 hrs in presence of 2 uM of CDDP by WST-1 assay relative to control
[8] = test system: HeLa; assay: Antiproliferative activity against human HeLa cells assessed as […] cell proliferation at 10 uM incubated for 48 hrs by WST-1 assay relative to control
[9] = test system: SAOS-2; assay: Antiproliferative activity against human SAOS-2 cells assessed as […] cell proliferation at 10 uM incubated for 48 hrs in presence of 15 uM of CDDP by WST-1 assay relative to control
[10] = test system: SAOS-2; assay: Antiproliferative activity against human SAOS-2 cells assessed as […] cell proliferation at 10 uM incubated for 48 hrs by WST-1 assay relative to control
[11] = test system: PANC-1; assay: Antiproliferative activity against human PANC-1 cells assessed as […] cell proliferation at 10 uM incubated for 48 hrs in presence of 15 uM of CDDP by WST-1 assay relative to control
[12] = test system: A2780; assay: Antiproliferative activity against human A2780 cells assessed as […] cell proliferation at 10 uM incubated for 48 hrs by WST-1 assay relative to control
[13] = test system: Jurkat; assay: Antiproliferative activity against human Jurkat cells assessed as […] cell proliferation at 10 uM incubated for 48 hrs by WST-1 assay relative to control
[14] = test system: PANC-1; assay: Antiproliferative activity against human PANC-1 cells assessed as […] cell proliferation at 10 uM incubated for 48 hrs by WST-1 assay relative to control
[15] = test system: MOLT-4; assay: Antiproliferative activity against human MOLT-4 cells assessed as […] cell proliferation at 10 uM incubated for 48 hrs by WST-1 assay relative to control
[16] = test system: A549; assay: Antiproliferative activity against human A549 cells assessed as […] cell proliferation at 10 uM incubated for 48 hrs in presence of 15 uM of CDDP by WST-1 assay relative to control
[17] = test system: MCF7; assay: Antiproliferative activity against human MCF7 cells assessed as […] cell proliferation at 10 uM incubated for 48 hrs in presence of 10 uM of CDDP by WST-1 assay relative to control
[18] = test system: HT-29; assay: Antiproliferative activity against human HT-29 cells assessed as […] cell proliferation at 10 uM incubated for 48 hrs by WST-1 assay relative to control

Structure (SMILES): CCN(CC)c1ccc(CNC(=O)c2cc3cc(-c4ccc(S(=O)(=O)C(C)C)cc4)cnc3[nH]2)cc1
- Activity [1]: 95%
- Activity [2]: 57%
- Activity [3]: 57%
- Activity [4]: 57%
- Activity [5]: 57%
- Activity [6]: 95%
- Activity [7]: 57%
- Activity [8]: 95%
- Activity [9]: 57%
- Activity [10]: 95%
- Activity [11]: 57%
- Activity [12]: 95%
- Activity [13]: 95%
- Activity [14]: 95%
- Activity [15]: 95%
- Activity [16]: 57%
- Activity [17]: 57%
- Cell viability relative to control [18]: 95%

Structure (SMILES): CC(C)S(=O)(=O)c1ccc(-c2cnc3[nH]cc(CN4CCc5ccccc5C4)c3c2)cc1
- Activity [1]: 101%
- Activity [2]: 62%
- Activity [3]: 62%
- Activity [4]: 62%
- Activity [5]: 62%
- Activity [6]: 101%
- Activity [7]: 62%
- Activity [8]: 101%
- Activity [9]: 62%
- Activity [10]: 101%
- Activity [11]: 62%
- Activity [12]: 101%
- Activity [13]: 101%
- Activity [14]: 101%
- Activity [15]: 101%
- Activity [16]: 62%
- Activity [17]: 62%
- Cell viability relative to control [18]: 101%

Structure (SMILES): CS(=O)(=O)c1ccc(-c2cnc3[nH]cc(C(=O)NCc4ccccc4)c3c2)cc1
- Activity [1]: 89%
- Activity [2]: 64%
- Activity [3]: 64%
- Activity [4]: 64%
- Activity [5]: 64%
- Activity [6]: 89%
- Activity [7]: 64%
- Activity [8]: 89%
- Activity [9]: 64%
- Activity [10]: 89%
- Activity [11]: 64%
- Activity [12]: 89%
- Activity [13]: 89%
- Activity [14]: 89%
- Activity [15]: 89%
- Activity [16]: 64%
- Activity [17]: 64%
- Cell viability relative to control [18]: 89%

Structure (SMILES): CC(C)S(=O)(=O)c1ccc(-c2cc(C(=O)Nc3ccc(N(C)C)cc3)n[nH]2)cc1
- Activity [1]: 93%
- Activity [2]: 65%
- Activity [3]: 65%
- Activity [4]: 65%
- Activity [5]: 65%
- Activity [6]: 93%
- Activity [7]: 65%
- Activity [8]: 93%
- Activity [9]: 65%
- Activity [10]: 93%
- Activity [11]: 65%
- Activity [12]: 93%
- Activity [13]: 93%
- Activity [14]: 93%
- Activity [15]: 93%
- Activity [16]: 65%
- Activity [17]: 65%
- Cell viability relative to control [18]: 93%

Structure (SMILES): CS(=O)(=O)c1ccc(-c2cnc3[nH]c(C(=O)NCc4ccccc4)cc3c2)cc1
- Activity [1]: 100%
- Activity [2]: 72%
- Activity [3]: 72%
- Activity [4]: 72%
- Activity [5]: 72%
- Activity [6]: 100%
- Activity [7]: 72%
- Activity [8]: 100%
- Activity [9]: 72%
- Activity [10]: 100%
- Activity [11]: 72%
- Activity [12]: 100%
- Activity [13]: 100%
- Activity [14]: 100%
- Activity [15]: 100%
- Activity [16]: 72%
- Activity [17]: 72%
- Cell viability relative to control [18]: 100%

Structure (SMILES): CC(C)S(=O)(=O)c1ccc(-c2cnc3[nH]nc(C(=O)N4CCc5ccccc5C4)c3c2)cc1
- Activity [1]: 96%
- Activity [2]: 61%
- Activity [3]: 61%
- Activity [4]: 61%
- Activity [5]: 61%
- Activity [6]: 96%
- Activity [7]: 61%
- Activity [8]: 96%
- Activity [9]: 61%
- Activity [10]: 96%
- Activity [11]: 61%
- Activity [12]: 96%
- Activity [13]: 96%
- Activity [14]: 96%
- Activity [15]: 96%
- Activity [16]: 61%
- Activity [17]: 61%
- Cell viability relative to control [18]: 96%

Structure (SMILES): CC(C)S(=O)(=O)c1ccc(-c2cnc3[nH]cc(C(=O)NCc4ccccc4)c3c2)cc1
- Activity [1]: 83%
- Activity [2]: 65%
- Activity [3]: 65%
- Activity [4]: 65%
- Activity [5]: 65%
- Activity [6]: 83%
- Activity [7]: 65%
- Activity [8]: 83%
- Activity [9]: 65%
- Activity [10]: 83%
- Activity [11]: 65%
- Activity [12]: 83%
- Activity [13]: 83%
- Activity [14]: 83%
- Activity [15]: 83%
- Activity [16]: 65%
- Activity [17]: 65%
- Cell viability relative to control [18]: 83%
